Data on 37 molecules can be found in patent publication US7879887B2, “α-amino acid derivatives and medicaments containing the same as an active ingredient” (Nissan Chemical Industries, Ltd., priority 2006, dated 2011).

One test relates to leukemia cell line KG-1a. Briefly: Cell proliferation inhibitory activity, KG-1a. The conditions noted are these: cells counted 4 days later with Cell Counting Kit-8. It is filed as cell-based. As to the method: (§1) Evaluations were carried out using colon carcinoma cell line SW620 (Cat. No. CCL-227), lung carcinoma cell line NCI-H460 (Cat. No. HTB-177), prostate cancer cell line DU 145 (Cat. No. HTB-81), breast cancer cell line MDA-MB-231 (Cat. No. HTB26) and leukemia cell line KG-1a (Cat. No. CCL-246.1) purchased from ATCC, pancreatic cancer cell line MIAPaCa-2 (Cat. No. CRL-1420) purchased from Dainippon Pharmaceutical, and ovarian cancer cell line IGROV1 received from the Netherland Cancer Institute. The cells were cultured under the conditions recommended by the supplier for each cell line, or with respect to IGROV1, according to the method described in Cancer Res. 59: 4559-4563, 1999. Cells suspended in media were added to solutions containing the test substances at various concentrations followed by culturing in a 5% CO2 incubator at 37° C. The numbers of cells were counted 4 days later with the Cell Counting Kit-8. IC50 values were calculated by assigning measured values in the case of not containing a test substance to an inhibition of 0%, and assigning measured values in the case of not containing a test substance or cells to an inhibition of 100%.
On the technique in general: Tetrazolium dyes change colour on reduction, which living cells bring about.

The next test deals with T1, Aurora A (Homo sapiens, UniProt O14965).
T1 construct: purchased Upstate Inc. 14-511
T1 sequence (O14965 1-403): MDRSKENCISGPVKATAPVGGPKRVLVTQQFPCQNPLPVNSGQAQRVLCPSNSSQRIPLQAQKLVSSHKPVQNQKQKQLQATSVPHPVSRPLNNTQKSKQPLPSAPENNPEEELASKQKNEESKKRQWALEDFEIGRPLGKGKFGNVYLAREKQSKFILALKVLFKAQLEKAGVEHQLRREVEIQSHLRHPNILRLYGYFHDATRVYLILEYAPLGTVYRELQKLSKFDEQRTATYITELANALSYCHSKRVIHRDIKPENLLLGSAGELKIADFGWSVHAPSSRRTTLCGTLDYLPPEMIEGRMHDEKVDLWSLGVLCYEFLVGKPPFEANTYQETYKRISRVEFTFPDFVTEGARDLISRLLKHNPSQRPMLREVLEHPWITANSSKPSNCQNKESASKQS
Put plainly: In vitro kinase assay, Aurora A. Format: biochemical. As to conditions: recombinant protein (Upstate). As to the method:
Inhibitory activity against Aurora A, CDK1/Cyclin B complex, CDK2/Cyclin E complex and CDK3/Cyclin E complex were measured by in vitro kinase assay using recombinant proteins. The assays were carried out by using recombinant proteins (Upstate Inc.) for Aurora A, CDK1/Cyclin B complex, CDK2/Cyclin E complex and CDK3/Cyclin E complex (respective cat. nos. 14-511, 14-450, 14-448 and 14-487), in accordance with the procedure described in the product instructions thereof. The 50% inhibitory concentrations (IC50 values) were calculated by assigning measured values in the case of not containing a test compound to an inhibition of 0%, and assigning measured values in the case of not containing a test compound and enzyme to an inhibition of 100%.

In another test the target is T2, CDK3/Cyclin E complex (Homo sapiens, UniProt Q00526).
T2 construct: purchased Upstate Inc. 14-487
T2 sequence (Q00526 whole entry): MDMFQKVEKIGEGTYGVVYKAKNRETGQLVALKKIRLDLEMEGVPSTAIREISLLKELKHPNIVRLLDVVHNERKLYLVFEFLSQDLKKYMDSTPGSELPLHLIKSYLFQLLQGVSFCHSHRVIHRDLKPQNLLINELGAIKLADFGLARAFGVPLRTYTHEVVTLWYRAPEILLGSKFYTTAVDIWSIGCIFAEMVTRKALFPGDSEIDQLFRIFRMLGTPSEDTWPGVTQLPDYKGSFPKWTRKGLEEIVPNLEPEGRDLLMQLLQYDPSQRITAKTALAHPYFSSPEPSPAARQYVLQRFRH
T2 sequence (P24864 whole entry partner): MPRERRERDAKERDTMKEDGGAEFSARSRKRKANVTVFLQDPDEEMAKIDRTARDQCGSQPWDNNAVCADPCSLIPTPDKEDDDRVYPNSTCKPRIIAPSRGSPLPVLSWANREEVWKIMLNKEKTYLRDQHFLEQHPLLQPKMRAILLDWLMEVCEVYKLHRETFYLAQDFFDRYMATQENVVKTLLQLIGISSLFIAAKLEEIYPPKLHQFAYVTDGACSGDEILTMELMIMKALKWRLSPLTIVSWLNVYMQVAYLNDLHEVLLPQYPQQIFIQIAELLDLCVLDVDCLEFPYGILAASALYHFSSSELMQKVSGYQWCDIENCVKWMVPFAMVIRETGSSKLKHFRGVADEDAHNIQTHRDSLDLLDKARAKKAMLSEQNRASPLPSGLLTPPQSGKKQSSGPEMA
Put plainly: In vitro kinase assay, CDK3/Cyclin E complex. It is filed as biochemical. The conditions noted are these: recombinant protein (Upstate); read-out: CDK3/cyclinE IC50. The method, then:
(§2) Inhibitory activity against Aurora A, CDK1/Cyclin B complex, CDK2/Cyclin E complex and CDK3/Cyclin E complex were measured by in vitro kinase assay using recombinant proteins.

For test [1], the system named is colon carcinoma cell line SW620. Briefly: Cell proliferation inhibitory activity, SW620. It is filed as cell-based, human. The conditions noted are these: cells counted 4 days later with Cell Counting Kit-8. The method, then: as §1
In a further test the target is CDK2/Cyclin E complex (Homo sapiens, UniProt P24941). Briefly: In vitro kinase assay, CDK2/Cyclin E complex. Format: biochemical. The conditions noted are these: recombinant protein (Upstate); read-out: CDK2/cyclinE IC50. As to the method: as §2

In the case of `COc1cc(NC(C)(C)C(=O)Nc2nc3ccc4[nH]ncc4c3s2)ccc1Cl` [compound 43], the IC50 with leukemia cell line KG-1a (Homo sapiens, 96 h) stood at 200 nM; at Aurora A it was 347 nM.
In the test with leukemia cell line KG-1a, `O=C(CNc1cc(F)cc(F)c1)Nc1nc2ccc3[nH]ncc3c2s1` [compound 5] returned an IC50 below 100 nM.
For `CC(C)OC(=O)c1cc(NC2(C(=O)Nc3nc4ccc5[nH]ncc5c4s3)CC2)ccc1Cl` [compound 123], the IC50 came to 195 nM at CDK3/Cyclin E complex; 2300 nM in test [1] (Homo sapiens, SW-620, 96 h); 141 nM on CDK2/Cyclin E complex.
`Cc1ccc(NC(C)(C)C(=O)Nc2nc3ccc4[nH]ncc4c3s2)cc1` [compound 39]: the IC50 in the test on leukemia cell line KG-1a (Homo sapiens, 96 h) was below 100 nM; at CDK3/Cyclin E complex, 367 nM; in test [1] (Homo sapiens, SW-620, 96 h), 2000 nM; at CDK2/Cyclin E complex, 143 nM.
For `O=C(CNc1ccc2cn[nH]c2c1)Nc1nc2ccc3[nH]ncc3c2s1` [compound 15], the IC50 was 88 nM on CDK3/Cyclin E complex and 40 nM at CDK2/Cyclin E complex.
`COc1cc(NCC(=O)Nc2nc3ccc4[nH]ncc4c3s2)ccc1Cl` [compound 4]: the IC50 was determined as 100 nM in the test on leukemia cell line KG-1a (Homo sapiens, 96 h); 468 nM on CDK3/Cyclin E complex; 2000 nM in test [1] (Homo sapiens, SW-620, 96 h); 335 nM at CDK2/Cyclin E complex.
In the case of `COc1cccc(NC(C)C(=O)Nc2nc3ccc4[nH]ncc4c3s2)c1` (stereo not drawn) [compound 22], the IC50 with leukemia cell line KG-1a (Homo sapiens, 96 h) is below 100 nM; at Aurora A, 387 nM; in test [1] (Homo sapiens, SW-620, 96 h), 1700 nM.
For the molecule `COc1ccc(NC(C)(C)C(=O)Nc2nc3ccc4[nH]ncc4c3s2)cc1` [compound 40], the IC50 was found to be 200 nM in the test with leukemia cell line KG-1a (Homo sapiens, 96 h); 2300 nM in test [1] (Homo sapiens, SW-620, 96 h); 340 nM on CDK2/Cyclin E complex.
Turning to `O=C(CNc1cccc(Cl)c1)Nc1nc2ccc3[nH]ncc3c2s1` [compound 8], the IC50 on CDK2/Cyclin E complex is 171 nM.
In turn, `COc1cccc(NC(CC(C)C)C(=O)Nc2nc3ccc4[nH]ncc4c3s2)c1` (stereo not drawn) [compound 26] returned an IC50 in the test with leukemia cell line KG-1a of 200 nM.
With `CC(C)(Nc1cccc(C(=O)O)c1)C(=O)Nc1nc2c(C(F)(F)F)cc3[nH]ncc3c2s1` [compound 66], the IC50 came out at 294 nM at Aurora A and 333 nM at CDK3/Cyclin E complex.
On to `CC(=O)Nc1cccc(NCC(=O)Nc2nc3ccc4[nH]ncc4c3s2)c1` [compound 106], for which the IC50 in the test on leukemia cell line KG-1a (Homo sapiens, 96 h) is below 100 nM; at CDK3/Cyclin E complex, 153 nM; at CDK2/Cyclin E complex, 55 nM.
For the molecule `COc1cccc(NC(C)(C)C(=O)Nc2nc3ccc4[nH]ncc4c3s2)c1` [compound 34], the IC50 in the test with leukemia cell line KG-1a (Homo sapiens, 96 h) is 100 nM; at Aurora A, 332 nM.
With `CC(C)(Nc1cccc(F)c1)C(=O)Nc1nc2ccc3[nH]ncc3c2s1` [compound 42], the IC50 is below 100 nM in the test on leukemia cell line KG-1a (Homo sapiens, 96 h); 2200 nM in test [1] (Homo sapiens, SW-620, 96 h); 434 nM on CDK2/Cyclin E complex.
Turning to `O=C(CNc1ccc2[nH]ncc2c1)Nc1nc2ccc3[nH]ncc3c2s1` [compound 13], the IC50 on CDK2/Cyclin E complex was 417 nM.
Take `CC(C)(Nc1ccc2[nH]c(=O)[nH]c2c1)C(=O)Nc1nc2c(C(F)(F)F)cc3[nH]ncc3c2s1` [compound 83]: the IC50 at CDK2/Cyclin E complex is 343 nM.
In the case of `O=C(CNc1ccccc1)Nc1nc2c(F)cc3[nH]ncc3c2s1` [compound 20], the IC50 in the test with leukemia cell line KG-1a turned out to be 100 nM; in test [1] it was 1300 nM.
With `O=C(Nc1nc2ccc3[nH]ncc3c2s1)C(Nc1cccc(O)c1)c1ccccc1` (stereo not drawn) [compound 27], the IC50 in the test on leukemia cell line KG-1a (Homo sapiens, 96 h) came out at 100 nM; at Aurora A it was 115 nM.
Regarding `CC(C)OC(=O)c1cc(NC(C)(C)C(=O)Nc2nc3ccc4[nH]ncc4c3s2)ccc1Cl` [compound 47], the IC50 in the test on leukemia cell line KG-1a (Homo sapiens, 96 h) is below 100 nM; at Aurora A it was 148 nM; on CDK3/Cyclin E complex, 343 nM; at CDK2/Cyclin E complex, 260 nM.
For the molecule `CCOC(=O)c1cc(NC(C)(C)C(=O)Nc2nc3ccc4[nH]ncc4c3s2)ccc1F` [compound 49], the IC50 is below 100 nM in the test with leukemia cell line KG-1a (Homo sapiens, 96 h) and 265 nM on Aurora A.
Turning to `CC(C)(Nc1ccc(Cl)cc1C(=O)NCC(N)=O)C(=O)Nc1nc2c(C(F)(F)F)cc3[nH]ncc3c2s1` [compound 88], the IC50 on CDK3/Cyclin E complex turned out to be 386 nM; in test [1] (Homo sapiens, SW-620, 96 h), 2900 nM; on CDK2/Cyclin E complex, 449 nM.
The like results for `CCC(=O)Nc1cc(NC(C(=O)Nc2nc3c(C(F)(F)F)cc4[nH]ncc4c3s2)c2ccccc2)ccc1Cl` (stereo not drawn) [compound 31] were, in that order, 353 nM, 2700 nM and 372 nM.
Turning to `CC(C)(Nc1cccc(F)c1)C(=O)Nc1nc2c(C(F)(F)F)cc3[nH]ncc3c2s1` [compound 67], the IC50 is 371 nM at CDK3/Cyclin E complex and 3000 nM in test [1] (Homo sapiens, SW-620, 96 h).
In the case of `NC(=O)CC(Nc1cccc(O)c1)C(=O)Nc1nc2ccc3[nH]ncc3c2s1` (stereo not drawn) [compound 109], the IC50 in the test on leukemia cell line KG-1a (Homo sapiens, 96 h) is below 100 nM; on Aurora A, 364 nM; on CDK3/Cyclin E complex, 55 nM; at CDK2/Cyclin E complex, 56 nM.
Consider `Cc1cc2[nH]ncc2c2sc(NC(=O)CNc3ccccc3)nc12` [compound 19], for which the IC50 on CDK3/Cyclin E complex worked out at 242 nM; in test [1] (Homo sapiens, SW-620, 96 h) it was 2900 nM; at CDK2/Cyclin E complex, 190 nM.
In the case of `CON(C)C(=O)c1cc(Cl)ccc1NC(C)(C)C(=O)Nc1nc2c(C(F)(F)F)cc3[nH]ncc3c2s1` [compound 100], the IC50 with leukemia cell line KG-1a (Homo sapiens, 96 h) was determined as 300 nM; on CDK3/Cyclin E complex it was 344 nM; in test [1] (Homo sapiens, SW-620, 96 h), 3300 nM; at CDK2/Cyclin E complex it was 391 nM.
With `COC(=O)c1cccc(NCC(=O)Nc2nc3ccc4[nH]ncc4c3s2)c1` [compound 134], the IC50 is below 100 nM in the test on leukemia cell line KG-1a (Homo sapiens, 96 h); 477 nM on CDK3/Cyclin E complex; 1900 nM in test [1] (Homo sapiens, SW-620, 96 h); 339 nM on CDK2/Cyclin E complex.
As to `O=C(CNc1ccccc1)Nc1nc2c(C(F)(F)F)cc3[nH]ncc3c2s1` [compound 18], the IC50 at CDK3/Cyclin E complex came to 380 nM.
Regarding `COc1cccc(NC(CC(N)=O)C(=O)Nc2nc3ccc4[nH]ncc4c3s2)c1` (stereo not drawn) [compound 110], the IC50 is 392 nM on CDK3/Cyclin E complex and 320 nM at CDK2/Cyclin E complex.
Take `O=C(CNc1ccc(F)cc1)Nc1nc2ccc3[nH]ncc3c2s1` [compound 105]: the IC50 in the test with leukemia cell line KG-1a (Homo sapiens, 96 h) was 100 nM; on CDK3/Cyclin E complex it was 257 nM; in test [1] (Homo sapiens, SW-620, 96 h), 1500 nM; at CDK2/Cyclin E complex, 205 nM.
Turning to `COc1cccc(NC2(C(=O)Nc3nc4ccc5[nH]ncc5c4s3)CC2)c1` [compound 119], the IC50 in the test on leukemia cell line KG-1a was 300 nM; in test [1], 2600 nM.
On to `O=C(CNc1cccc(O)c1)Nc1nc2ccc3[nH]ncc3c2s1` [compound 2], for which the IC50 with leukemia cell line KG-1a (Homo sapiens, 96 h) was below 100 nM; on Aurora A it was 148 nM; on CDK3/Cyclin E complex, 128 nM; in test [1] (Homo sapiens, SW-620, 96 h), 1200 nM; at CDK2/Cyclin E complex, 82 nM.
On to `O=C(CNc1ccccc1)Nc1nc2ccc3[nH]nc(Cl)c3c2s1` [compound 108], for which the IC50 in the test on leukemia cell line KG-1a is 300 nM.
On to `O=C(Nc1nc2ccc3[nH]ncc3c2s1)C1CCCN1c1ccc(Cl)cc1` (stereo not drawn) [compound 111], for which the IC50 in the test on leukemia cell line KG-1a (Homo sapiens, 96 h) was determined as 500 nM; at CDK3/Cyclin E complex it was 262 nM; in test [1] (Homo sapiens, SW-620, 96 h), 2300 nM; at CDK2/Cyclin E complex, 100 nM.
Turning to `CC(=O)Nc1cc(NC(C(=O)Nc2nc3ccc4[nH]ncc4c3s2)c2ccccc2)ccc1Cl` (stereo not drawn) [compound 131], the IC50 came out at 94 nM on Aurora A; 427 nM at CDK3/Cyclin E complex; 3000 nM in test [1] (Homo sapiens, SW-620, 96 h); 277 nM on CDK2/Cyclin E complex.
Regarding `CS(=O)(=O)Nc1cccc(NCC(=O)Nc2nc3ccc4[nH]ncc4c3s2)c1` [compound 14], the IC50 was 200 nM in the test with leukemia cell line KG-1a (Homo sapiens, 96 h); 410 nM at CDK3/Cyclin E complex; 224 nM on CDK2/Cyclin E complex.
As for `CN(C)C(=O)c1cc(NC2(C(=O)Nc3nc4ccc5[nH]ncc5c4s3)CC2)ccc1Cl` [compound 124], in the test with leukemia cell line KG-1a, the IC50 came out at 100 nM.
